The record followed here is US20230210771A1, “COMPOSITIONS FOR THE DELIVERY OF THERAPEUTIC AGENTS AND METHODS OF USE AND MAKING THEREOF” (priority 2020, published 2023).

Where only a bound is given, the exact number is not on record here.

The data set can be described thus: Terpene concentration (HPLC, GC-FID). Type of data set: physicochemical. The following applies: terpene content of hemp distillate + alpha-pinene lipid nanoparticle formulation (Example 34), diluted to theoretical 12 mg/mL CBD. As to the method:
A 5 Liter manufacturing batch was analyzed by high pressure liquid chromatography (HPLC) to measure Terpenes present in the sample.
When all ingredients were dissolved, the solvent was removed to form a dried composition. The resulting particle size and zeta potential were determined using a Malvern ZetaSizer and cannabinoid concentrations were determined by UPLC. Terpene concentrations were determined by GC-FID.
Take `CC(C)=CCC[C@](C)(O)[C@@H]1CC=C(C)CC1` [alpha-Bisabolol]: the “Measured Concentration (mg/g) of terpene” value is listed as 0.062 mg/g and the “Measured Concentration (w/w %) of terpene” value is 0.006%.
With `C=C1CC[C@H]2O[C@]2(C)CC[C@@H]2[C@@H]1CC2(C)C` [Caryophyllene Oxide], the “Measured Concentration (mg/g) of terpene” value is given as “<LOQ” and the “Measured Concentration (w/w %) of terpene” value is “<LOQ”.
In the case of `C=CC(C)(O)CC/C=C(/C)CCC=C(C)C` (stereo not drawn) [cis-Nerolidol], the “Measured Concentration (mg/g) of terpene” value is reported as “<LOQ” and the “Measured Concentration (w/w %) of terpene” value is “<LOQ”.
Consider `CC1=CCC2CC1C2(C)C` (stereo not drawn) [alpha-Pinene], for which the “Measured Concentration (mg/g) of terpene” value was 5.205 mg/g and the “Measured Concentration (w/w %) of terpene” value was 0.521%.
On the same counts, the results for `C=C(C)[C@H]1CC=C(C)CC1` [delta-Limonene] are “<LOQ” and “<LOQ”.
For `C=C1C2CCC(C2)C1(C)C` (centres unmarked) [Camphene] the same measures were 0.046 mg/g and 0.005%.
Take `C=CC(C)(O)CC/C=C(\C)CCC=C(C)C` (stereo not drawn) [trans-Nerolidol]: the “Measured Concentration (mg/g) of terpene” value is “<LOQ” and the “Measured Concentration (w/w %) of terpene” value is listed as “<LOQ”.
As for `C=CC(=C)CCC=C(C)C` [beta-Myrecene], the “Measured Concentration (mg/g) of terpene” value is on record as “<LOQ” and the “Measured Concentration (w/w %) of terpene” value is reported as “<LOQ”.
Turning to `C=C1CC/C=C(\C)CC[C@@H]2[C@@H]1CC2(C)C` [Beta-Caryophyllene], the “Measured Concentration (mg/g) of terpene” value came to 0.026 mg/g and the “Measured Concentration (w/w %) of terpene” value was 0.003%.
Take `CC1=CCC(C(C)C)=CC1` [y-Terpinene]: the “Measured Concentration (mg/g) of terpene” value is “<LOQ” and the “Measured Concentration (w/w %) of terpene” value is on record as “<LOQ”.
In the case of `C=C1CCC2CC1C2(C)C` (stereo not drawn) [beta-Pinene], the “Measured Concentration (mg/g) of terpene” value amounted to 0.026 mg/g and the “Measured Concentration (w/w %) of terpene” value is given as 0.003%.
On the same counts, the results for `C=C/C(C)=C/CC=C(C)C` [e-Ocimene] are “<LOQ” and “<LOQ”.
On to `C=C(C)[C@@H]1CC[C@@H](C)C[C@H]1O` [Isopulegol], for which the “Measured Concentration (mg/g) of terpene” value is recorded as “<LOQ” and the “Measured Concentration (w/w %) of terpene” value is recorded as “<LOQ”.
Consider `CC1=CCC2C(C1)C2(C)C` (centres unmarked) [Carene], for which the “Measured Concentration (mg/g) of terpene” value is recorded as “<LOQ” and the “Measured Concentration (w/w %) of terpene” value is “<LOQ”.
As for `CC1=CCC(=C(C)C)CC1` [Terpinolene], the “Measured Concentration (mg/g) of terpene” value was “<LOQ” and the “Measured Concentration (w/w %) of terpene” value was “<LOQ”.
In the case of `C[C@H]1CC[C@@H](C(C)(C)O)CC2=C1CC[C@@H]2C` [alpha-Guaiol], the “Measured Concentration (mg/g) of terpene” value is recorded as 0.023 mg/g and the “Measured Concentration (w/w %) of terpene” value stood at 0.002%.
For `CC12CCC(CC1)C(C)(C)O2` [Eucalyptol], the “Measured Concentration (mg/g) of terpene” value is “<LOQ” and the “Measured Concentration (w/w %) of terpene” value is listed as “<LOQ”.
Regarding `C=CC(C)(O)CCC=C(C)C` (centres unmarked) [Linalool], the “Measured Concentration (mg/g) of terpene” value is “<LOQ” and the “Measured Concentration (w/w %) of terpene” value was “<LOQ”.
On to `Cc1ccc(C(C)C)cc1` [p-Cymene], for which the “Measured Concentration (mg/g) of terpene” value is on record as “<LOQ” and the “Measured Concentration (w/w %) of terpene” value was “<LOQ”.
In the case of `CC(C)=CCC/C(C)=C/CO` [Geraniol], the “Measured Concentration (mg/g) of terpene” value is reported as “<LOQ” and the “Measured Concentration (w/w %) of terpene” value is “<LOQ”.
Regarding `C/C1=C\CC/C(C)=C/CC(C)(C)/C=C/C1` [Humulene], the “Measured Concentration (mg/g) of terpene” value was “<LOQ” and the “Measured Concentration (w/w %) of terpene” value was “<LOQ”.
In the case of `C=C/C(C)=C\CC=C(C)C` [z-Ocimene], the “Measured Concentration (mg/g) of terpene” value was “<LOQ” and the “Measured Concentration (w/w %) of terpene” value is “<LOQ”.
